Assay results taken from BindingDB's records for doi:10.1128/aac.01536-06 (Public Health Research Institute, 2007).

Legend:
1,3-beta-glucan synthase [1] = target: T1, 1,3-beta-glucan synthase (Candida albicans, UniProt O13423); assay: Inhibition of glucan synthase in Candida albicans ATCC 90028 in presence of 50% human serum
1,3-beta-glucan synthase [2] = target: T1, 1,3-beta-glucan synthase; assay: Inhibition of glucan synthase in Candida albicans ATCC 36082 in presence of 10% human serum
1,3-beta-glucan synthase [3] = target: T1, 1,3-beta-glucan synthase; assay: Inhibition of glucan synthase in Candida albicans ATCC 36082 in presence of 20% human serum
1,3-beta-glucan synthase [4] = target: T1, 1,3-beta-glucan synthase; assay: Inhibition of glucan synthase in Candida albicans ATCC 36082 in presence of 50% human serum
1,3-beta-glucan synthase [5] = target: T1, 1,3-beta-glucan synthase; assay: Inhibition of glucan synthase in Candida albicans SC5314 in presence of 20% human serum
1,3-beta-glucan synthase [6] = target: T1, 1,3-beta-glucan synthase; assay: Inhibition of glucan synthase in Candida albicans SC5314 in presence of 50% human serum
1,3-beta-glucan synthase [7] = target: T1, 1,3-beta-glucan synthase; assay: Inhibition of glucan synthase in Candida albicans ATCC 36082
1,3-beta-glucan synthase [8] = target: T1, 1,3-beta-glucan synthase; assay: Inhibition of glucan synthase in Candida albicans SC5314 in presence of 10% human serum
1,3-beta-glucan synthase [9] = target: T1, 1,3-beta-glucan synthase; assay: Inhibition of glucan synthase in Candida albicans 36082 assessed as incorporation of [3H]uridine diphosphoglucose
1,3-beta-glucan synthase [10] = target: T1, 1,3-beta-glucan synthase; assay: Inhibition of glucan synthase in Candida albicans 36082 assessed as incorporation of [3H]uridine diphosphoglucose in presence of 50% serum
1,3-beta-glucan synthase [11] = target: T1, 1,3-beta-glucan synthase; assay: Inhibition of glucan synthase in Candida albicans ATCC 90028 in presence of 20% human serum

T1 sequence (O13423 whole entry): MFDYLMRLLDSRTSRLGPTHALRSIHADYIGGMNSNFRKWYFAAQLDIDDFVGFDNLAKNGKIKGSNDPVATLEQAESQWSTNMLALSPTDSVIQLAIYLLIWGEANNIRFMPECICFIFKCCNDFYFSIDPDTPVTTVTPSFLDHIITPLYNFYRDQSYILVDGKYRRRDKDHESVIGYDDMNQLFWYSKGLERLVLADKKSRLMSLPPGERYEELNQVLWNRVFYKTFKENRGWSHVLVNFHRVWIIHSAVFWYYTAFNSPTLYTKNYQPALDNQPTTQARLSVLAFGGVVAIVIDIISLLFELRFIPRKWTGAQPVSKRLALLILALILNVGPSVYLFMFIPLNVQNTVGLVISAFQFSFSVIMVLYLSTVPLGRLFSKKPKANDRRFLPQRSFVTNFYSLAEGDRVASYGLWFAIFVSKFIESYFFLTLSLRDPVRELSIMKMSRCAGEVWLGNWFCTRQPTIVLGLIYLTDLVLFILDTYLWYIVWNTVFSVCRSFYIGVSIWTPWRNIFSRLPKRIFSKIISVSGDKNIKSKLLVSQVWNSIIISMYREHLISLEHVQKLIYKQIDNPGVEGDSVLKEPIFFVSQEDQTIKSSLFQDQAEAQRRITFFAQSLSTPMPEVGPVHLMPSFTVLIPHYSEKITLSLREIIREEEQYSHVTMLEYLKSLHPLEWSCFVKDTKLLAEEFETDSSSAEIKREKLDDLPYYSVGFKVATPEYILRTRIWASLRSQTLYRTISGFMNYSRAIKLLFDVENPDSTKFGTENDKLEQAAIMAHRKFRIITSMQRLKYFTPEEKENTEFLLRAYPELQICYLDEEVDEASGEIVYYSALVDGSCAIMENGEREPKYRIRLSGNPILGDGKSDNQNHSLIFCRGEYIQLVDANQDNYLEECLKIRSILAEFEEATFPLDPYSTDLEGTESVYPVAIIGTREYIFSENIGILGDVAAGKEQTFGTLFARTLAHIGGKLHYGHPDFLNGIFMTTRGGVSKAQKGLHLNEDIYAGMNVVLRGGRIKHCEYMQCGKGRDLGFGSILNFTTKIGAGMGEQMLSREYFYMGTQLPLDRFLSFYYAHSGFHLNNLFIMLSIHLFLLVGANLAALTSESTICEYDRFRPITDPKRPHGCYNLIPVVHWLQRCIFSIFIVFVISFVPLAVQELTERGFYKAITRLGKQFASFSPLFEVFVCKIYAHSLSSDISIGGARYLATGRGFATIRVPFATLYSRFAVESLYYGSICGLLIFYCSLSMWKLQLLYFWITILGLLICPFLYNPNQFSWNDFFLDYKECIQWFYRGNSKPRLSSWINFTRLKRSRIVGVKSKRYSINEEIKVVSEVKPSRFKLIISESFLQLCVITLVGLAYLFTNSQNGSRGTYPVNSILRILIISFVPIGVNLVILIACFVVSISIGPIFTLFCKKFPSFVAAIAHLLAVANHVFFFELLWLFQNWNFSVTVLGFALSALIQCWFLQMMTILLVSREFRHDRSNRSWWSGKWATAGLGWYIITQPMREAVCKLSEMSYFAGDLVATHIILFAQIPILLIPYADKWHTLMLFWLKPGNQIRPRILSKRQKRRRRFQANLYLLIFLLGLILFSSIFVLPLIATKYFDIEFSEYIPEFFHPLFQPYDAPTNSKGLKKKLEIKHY

Q: `CCC(C)CC(C)CCCCCCCCC(=O)N[C@H]1C[C@@H](O)[C@@H](NCCN)NC(=O)[C@@H]2[C@@H](O)CCN2C(=O)[C@H]([C@H](O)CCN)NC(=O)[C@H]([C@H](O)[C@@H](O)c2ccc(O)cc2)NC(=O)[C@@H]2C[C@@H](O)CN2C(=O)[C@H]([C@@H](C)O)NC1=O` (stereo partly specified) [CHEBI:474180] was tested. Which IC50 (1,3-beta-glucan synthase [1]) did it give?
A: 6.3 nM

Q: What about the IC50 (1,3-beta-glucan synthase [2]) of the same molecule?
A: 2.8 nM

Q: And the IC50 (1,3-beta-glucan synthase [3])?
A: 5.3 nM

Q: What about the IC50 (1,3-beta-glucan synthase [4]) of the same molecule?
A: 8.7 nM

Q: What about the IC50 (1,3-beta-glucan synthase [5]) of the same molecule?
A: 37 nM

Q: And the IC50 (1,3-beta-glucan synthase [6])?
A: 81 nM

Q: What about the IC50 (1,3-beta-glucan synthase [7]) of the same molecule?
A: 0.9 nM

Q: What about the IC50 (1,3-beta-glucan synthase [8]) of the same molecule?
A: 27 nM

Q: What about the IC50 (1,3-beta-glucan synthase [9]) of the same molecule?
A: 0.33 nM

Q: And the IC50 (1,3-beta-glucan synthase [10])?
A: 6.2 nM

Q: What about the IC50 (1,3-beta-glucan synthase [11]) of the same molecule?
A: 2.1 nM
